Test results reported in patent publication US11623927B2, “Substituted [1,2,4]triazolo[1,5-a]pyrimidines for stabilizing microtubules” (THE TRUSTEES OF THE UNIVERSITY OF PENNSYLVANIA, priority 2018, dated 2023).

Legend:
MTs [1] = details: in words; versus vincristine, taxol, colchicine; cited from earlier work
MTs [2] = details: in words; cited from earlier work
total α-tubulin = test: cell-based MT assay: total α-tubulin by ELISA in cell lysates; details: for Total α-Tubulin: 4 h incubation, ELISA, relative level, average and SD of triplicate; for effect on total tubulin: in words, see FIG. 1 (compound 22, HEK-293 cells, 4 h)
Protocol: (§1) The compounds where then evaluated in a cell-based MT assay as described in Kovalevich, Characterization of brain-penetrant pyrimidine-containing molecules with differential microtubule-stabilizing activities developed as potential therapeutic agents for Alzheimer's disease and related tauopathies. J. Pharmacol. Exp. Ther., 2016, 357, 432-50. In summary, acetylated α-tubulin and total α-tubulin levels were determined by ELISA in cell lysates after 4 h of incubation with test compound at either 1 or 10 μM. See, Table 1.

acetylated α-tubulin = test: cell-based MT assay: acetylated α-tubulin by ELISA in cell lysates; details: for Acetylated α-Tubulin: 4 h incubation, ELISA, relative level, average and SD of triplicate; for relative activity in the cell-based MT assay / shape of dose-response: in words; for relative activity in the cell-based MT assay: comparison among tested compounds; for shape of dose-response: see FIG. 1 (compound 22, HEK-293 cells, 4 h)
Protocol: as §1

| SMILES | Total α-Tubulin (total α-tubulin; 10 μM test compound) | relative activity in the cell-based MT assay (acetylated α-tubulin) | shape of dose-response (acetylated α-tubulin) | effect on total tubulin (total α-tubulin) | other results |
| --- | --- | --- | --- | --- | --- |
| CNCCCOc1cc(F)c(-c2c(Cl)nc3ncnn3c2N[C@@H](C)C(F)(F)F)c(F)c1 [Cevipabulin (1), Cevipabulin] |  |  |  |  | competition for binding to MTs (MTs [1]): competes with vincristine but not taxol or colchicine |
| CO[C@H]1C[C@H]2CC[C@@H](C1)N2c1c(-c2c(F)cc(F)cc2F)c(Cl)nc2ncnn12 [Compound 2, reference compound] |  |  |  |  | binding to MTs versus unpolymerized tubulin heterodimers (MTs [2]): binds exclusively to MTs and not to unpolymerized tubulin heterodimers; Total α-Tubulin (total α-tubulin; 1 μM test compound): 1.12 ± 0.08 |
| C[C@H](Nc1c(-c2c(F)cc(OCCCNC(=O)c3ccc(C4(C(F)(F)F)N=N4)cc3)cc2F)c(Cl)nc2ncnn12)C(F)(F)F [Compound 11, (S)—N-(3-(4-(5-chloro-7-((1,1,1-trifluoropropan-2-yl)amino)-[1,2,4]triazolo[1,5-a]pyrimidin-6-yl)-3,5-difluorophenoxy)propyl)-4-(3-(trifluoromethyl)-3H-diazirin-3-yl)benzamide] | 0.88 ± 0.05 |  |  |  | Acetylated α-Tubulin (acetylated α-tubulin; 1 μM test compound): 1.30 ± 0.28 |
| C[C@H](Nc1c(-c2c(F)cc(F)cc2F)c(Cl)nc2ncnn12)C1(C)N=N1 [Compound 14, (S)-5-chloro-N-(1-(3-methyl-3H-diazirin-3-yl)ethyl)-6-(2,4,6-trifluorophenyl)-[1,2,4]triazolo[1,5-a]pyrimidin-7-amine] | 0.94 ± 0.02 |  |  |  |  |
| C[C@@H](Nc1c(-c2c(F)cc(OCCCN(C)C)cc2F)c(Cl)nc2ncnn12)C1(C)N=N1 [Compound 21, (R)-5-chloro-6-(4-(3-(dimethylamino)propoxy)-2,6-difluorophenyl)-N-(1-(3-methyl-3H-diazirin-3-yl)ethyl)-[1,2,4]triazolo[1,5-a]pyrimidin-7-amine] |  | most active | bell-shaped dose-response | profound loss of total tubulin in a dose-dependent manner | Acetylated α-Tubulin (acetylated α-tubulin; 10 μM test compound): 0.93 ± 0.03 |
| CN(C)CCCOc1cc(F)c(-c2c(Cl)nc3ncnn3c2NCC2(C)N=N2)c(F)c1 [Compound 22, 5-chloro-6-(4-(3-(dimethylamino)propoxy)-2,6-difluorophenyl)-N-((3-methyl-3H-diazirin-3-yl)methyl)-[1,2,4]triazolo[1,5-a]pyrimidin-7-amine] |  | most active | bell-shaped dose-response | profound loss of total tubulin in a dose-dependent manner |  |
